According to patent publication US10689394B2, “Thieno[2,3-b]pyridine derivative, quinoline derivative, and use thereof” (The University of Tokyo, priority 2016, dated 2020):

What was measured:
[1] = biological target: T1, binding between ALS-related mutant SOD1 (Flag-SOD1 G93A) and Derlin-1 (Derlin-1-HA) (Homo sapiens, UniProt P00441+Q9BUN8, G94A); experiment: Cell-based co-immunoprecipitation assay of mutant SOD1 (G93A)-Derlin-1 binding; set-up: key to Activity value (score): a compound exhibiting no inhibitory activity is set at 0; a compound exhibiting inhibitory activity is set at 1; a compound exhibiting significant inhibitory activity is set at 2; a compound having higher inhibitory activity than the compound of Example 1 is set at 3
T1 construct: expressed in transfected cells; host or cells: HEK293A
Method: As cells, human embryonic kidney-derived, Human Embryonic Kidney 293A (HEK293A) cells were used. The cells were cultured in High Glucose Dulbecco's modified Eagle's medium (DMEM: 4.5 mg/ml glucose, Sigma) supplemented with complement-inactivated 10% fetal bovine serum (FBS, Vitromex) and 100 units/mL Penicillin G (Meiji), which was placed in an incubator set at conditions of 37° C. and 5% CO2.
(§1) Transfection into the HEK293A cells was carried out using PEI-Max (Polyscience) at a ratio of 3 μL of PEI-Max to 1 μg of plasmid. DMEM was mixed with PEI-Max, and the mixture was then left at rest for 5 minutes. Thereafter, the reaction mixture was added to the plasmid DNA dissolved in DMEM, and the thus obtained mixture was further left at rest for 15 minutes. After seeding, the culture was carried out for 12 to 24 hours, and the resultant was then added to a culture medium of cells, in which the medium had been exchanged with DMEM supplemented only with 10% FBS.
(§2) pcDNA3.0-Derlin-1-HA, pcDNA3.0-Flag-SOD1 G93A, and 123 types of other mutants.
In the lysis of HEK293A cells for use in a co-immunoprecipitation experiment, an IP lysis buffer (20 mM Tris-HCl (pH 7.5), 150 mM NaCl, 10 mM EDTA (pH 8.0), 1% Triton-X 100, 5 μg/mL leupeptin, and 1 mM phenylmethylsulfonyl fluoride) was used.
After the transfection on a 24-well plate, the cells were cultured for 12 hours or 24 hours, and the obtained cell culture was exchanged with 200 μL of medium. Thereafter, 1% DMSO or various types of compounds having each different concentration were added into the culture. Thirty-six hours or twenty-four hours later, the cells were incubated in the IP lysis buffer (300 μL/well) at 4° C. for 25 minutes, so that the cells were lysed. The cell lysate was centrifuged at 4° C. at 15000 rpm for 10 minutes, and a supernatant was then recovered. To this supernatant, Anti-Flag M2 affinity gel was added in a liquid amount of 20 μL, and they were allowed to react with each other by subjecting the obtained mixture to inversion mixing at 4° C. for 25 minutes. After completion of the reaction, a supernatant was removed, and the residue was washed twice with High salt wash buffer (1% Triton X 100, 500 mM NaCl, 20 mM Tris-HCl (pH 7.5), and 5 mM EGTA), and was then washed once with Low salt wash buffer (150 mM NaCl, 20 mM Tris-HCl (pH 7.5), and 5 mM EGTA). Finally, 50 μL of a 2×SDS sample buffer was added to the resultant, and the obtained mixture was then boiled at 98° C. for 3 minutes to obtain an SDS-PAGE sample. Regarding the lysate, a 2×SDS sample buffer was added in an amount equal to the supernatant, and the obtained mixture was then boiled at 98° C. for 3 minutes to obtain an SDS-PAGE sample.
After completion of SDS-PAGE, a protein was transferred from the gel into a polyvinylidene difluoride membrane (PVDF) ([…], Pall), and was then blocked with TBS-T (150 mM NaCl, 50 mM Tris-HCl (pH 8.0), and 0.05% Tween 20) supplemented with 5% skimmed milk at room temperature for 2 hours or more. Thereafter, a primary antibody diluted with TBS-T supplemented with 5% bovine serum albumin and 0.1% NaN3 was allowed to bind to each molecule on the PVDF membrane at 4° C. for 12 hours or more. After completion of the reaction, a secondary antibody (HRP-linked 2nd antibody) diluted with TBS-T supplemented with 5% skimmed milk was allowed to bind to the primary antibody at room temperature for 1 hour. Thereafter, the resultant was washed with TBS-T for 15 minutes, 3 or more times, and detection was then carried out using an enhanced chemiluminescence (ECL) system.
With regard to the compounds of the present invention (Example Compound 1 to Example Compound 47), whether or not the present compound can inhibit the binding between ALS-related mutant SOD1 and Derlin-1 in a cell by being added into a cell culture solution was examined according to a co-immunoprecipitation experiment. […]

[2] = test system: binding between 122 types of ALS-related mutant SOD1s and Derlin-1; experiment: Cell-based co-immunoprecipitation with 122 types of ALS-related mutant SOD1s; set-up: species or system human; conditions: co-immunoprecipitation at cell level, FIG. 2 to FIG. 9
Method: as §1, §2
After the transfection on a 24-well plate, the cells were cultured for 12 hours or 24 hours, and the obtained cell culture was exchanged with 200 μL of medium. Thereafter, 1% DMSO or various types of compounds having each different concentration were added into the culture. Thirty-six hours or twenty-four hours later, the cells were incubated in the IP lysis buffer (300 μL/well) at 4° C. for 25 minutes, so that the cells were lysed. The cell lysate was centrifuged at 4° C. at 15000 rpm for 10 minutes, and a supernatant was then recovered. To this supernatant, Anti-Flag M2 affinity gel was added in a liquid amount of 20 μL, and they were allowed to react with each other by subjecting the obtained mixture to inversion mixing at 4° C. for 25 minutes. […]

dimerization of SOD1 = dimerization of SOD1 (Homo sapiens, UniProt P00441); experiment: Inhibition of dimerization of SOD1; type: cell-based; conditions: under conditions for inhibiting the binding between mutant SOD1 and Derlin-1
Excerpt: (§3) In the above-described SOD1-Derlin-1-binding inhibition experiment, SOD1 G93A that is a representative mutant SOD1 associated with the onset of the pathologic conditions of ALS was used. According to previous studies, however, it has become clear that 122 types of ALS-related mutant SOD1s bind to Derlin-1 (Fujisawa et al., Ann Neurol 72, 739-749, (2012)).

[3] = biological target: T2, complex formation by Derlin-1 (Homo sapiens, UniProt Q9BUN8); experiment: Inhibition of complex formation by Derlin-1; type: cell-based; conditions: under conditions for inhibiting the binding between mutant SOD1 and Derlin-1
T2 sequence (Q9BUN8 1-251): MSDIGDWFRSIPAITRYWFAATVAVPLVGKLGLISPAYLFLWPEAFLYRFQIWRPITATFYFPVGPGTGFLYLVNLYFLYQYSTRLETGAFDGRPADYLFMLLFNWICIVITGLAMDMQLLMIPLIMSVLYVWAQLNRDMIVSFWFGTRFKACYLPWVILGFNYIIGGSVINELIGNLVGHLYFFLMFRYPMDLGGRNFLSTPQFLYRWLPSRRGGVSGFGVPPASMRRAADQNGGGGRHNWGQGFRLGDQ
Excerpt: as §3

T1 sequence (P00441 whole entry G94A, species assumed, one chain of several): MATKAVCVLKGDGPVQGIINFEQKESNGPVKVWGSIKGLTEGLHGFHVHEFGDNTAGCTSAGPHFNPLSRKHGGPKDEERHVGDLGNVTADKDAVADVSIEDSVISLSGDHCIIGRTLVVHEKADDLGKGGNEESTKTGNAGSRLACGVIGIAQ
dimerization of SOD1, sequence (P00441 whole entry): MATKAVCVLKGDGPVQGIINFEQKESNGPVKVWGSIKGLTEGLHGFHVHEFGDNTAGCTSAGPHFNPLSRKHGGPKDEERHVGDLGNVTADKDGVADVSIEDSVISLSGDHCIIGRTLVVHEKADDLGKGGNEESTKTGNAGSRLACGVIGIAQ

With `C=CCN(C(=O)c1sc2nc(-c3cccnc3)ccc2c1N)c1ccccc1` [Example 1, N-allyl-3-amino-N-phenyl-6-(3-pyridinyl)thieno[2,3-b]pyridine-2-carboxamide] the “binding between mutant SOD1 and Derlin-1 (co-precipitated Derlin-1, IB:HA band)” value ([1]; 5 μM, 10 μM and 20 μM added to HEK293A cell culture, FIG. 1) was “the binding between mutant SOD1 and Derlin-1 was inhibited”, the “Activity value (score)” value ([1]; assay concentration 20 μM, HEK293A cells overexpressing Flag-SOD1 G93A and Derlin-1-HA) was 2 and the “inhibition of binding between multiple types of mutant SOD1s and Derlin-1” value [2] was “inhibits the binding between all of the mutant SOD s and Derlin-1”. For the same compound, the “inhibitory activity on dimerization of SOD1” value (dimerization of SOD1) was “did not exhibit inhibitory activity” and the “inhibitory activity on complex formation by Derlin-1” value [3] was “did not exhibit inhibitory activity”.
